The source of these data is ChEMBL document CHEMBL1129486, “(2S,4S)-2-amino-4-(4,4-diphenylbut-1-yl)- pentane-1,5-dioic acid: a potent and selective antagonist for metabotropic glutamate receptors negatively linked to adenylate cyclase” (J Med Chem, 1996).

As usually defined, the IC50 is the concentration that inhibits the measured activity by half. The low end stands for inhibition by little substance, the high end for a need for much substance.

Experiment [1] in a line: Compound was evaluated for its ability to reverse ACPD-induced inhibition of forskolin-stimulated cAMP formation in the human mGluR2 expressing non-neuronal cells. It is filed as functional. Background: Changes in cAMP serve as a functional read-out for many G protein-coupled receptors.
In experiment [2] the target is Metabotropic glutamate receptor. In words: Compound was tested for its ability to displace metabotropic glutamate binding to rat brain membranes using [3H]glutamate radioligand. The experiment is classed as tissue-based, Membrane.

`N[C@@H](C[C@@H](CCCC(c1ccccc1)c1ccccc1)C(=O)O)C(=O)O`: the results for the IC50 in experiment [1] and in experiment [2] were 171 µM and 55.3 µM, respectively.

`N[C@@H](CC(CCCC(c1ccccc1)c1ccccc1)C(=O)O)C(=O)O` (stereo not given in full) registered an IC50 in experiment [2] of 4.2 µM.

Turning to `N[C@@H](C[C@H](CCCC(c1ccccc1)c1ccccc1)C(=O)O)C(=O)O`, the figures for the IC50 in experiment [1] and in experiment [2] were 18.1 µM and 4.1 µM, respectively.
